# Laboratory results as given in patent US9732119B2, “Immunomodulators” (BRISTOL-MYERS SQUIBB COMPANY, priority 2014, dated 2017).
# Positions of bridges follow the written chain, without caps; N, C: chain ends. Non-standard residues stand in square brackets, D forms with d. Residues, ends and D or L forms follow the SMILES beside them. Trp(1-CH2COOH) = N[C@@H](Cc1cn(CC(=O)O)c2ccccc12)C(=O)O; Phe(4-Cl) = N[C@@H](Cc1ccc(Cl)cc1)C(=O)O; Phe(4-Me) = Cc1ccc(C[C@H](N)C(=O)O)cc1; Hyp = O=C(O)[C@@H]1C[C@@H](O)CN1; Aad = N[C@@H](CCCC(=O)O)C(=O)O; NMeNle = CCCC[C@H](NC)C(=O)O; Pip = O=C(O)[C@@H]1CCCCN1; NMeA = CN[C@@H](C)C(=O)O; Orn = NCCC[C@H](N)C(=O)O; Dab = NCC[C@H](N)C(=O)O; Dap = NC[C@H](N)C(=O)O; AEA = NCCOCC(=O)O; Ava = NCCCCC(=O)O
# Target: T1, PD-1-Ig binding to PD-L1-TVMV-His (PD-L1-His) (Homo sapiens, UniProt Q9NZQ7)
# T1 construct: hPDL1(19-239)-TVMV-His; made in house; host or cells: HEK293T cells
# Test: PD-1/PD-L1 Homogenous Time-Resolved Fluorescence (HTRF) binding assay
# Conditions: PD-1-Ig (20 nM) / PD-L1-His (10 nM); numeric values
# Outline: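 HTRF competition: compound pre-incubated 15 min with PD-L1-His (10 nM final), then PD-1-Ig (20 nM final) added for 15 min in dPBS, 0.1% BSA, 0.05% Tween-20. Detection with Eu-cryptate anti-Ig (1 nM) and APC anti-His (20 nM) antibodies.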
# T1 sequence (Q9NZQ7 with tags, fused parts or gaps): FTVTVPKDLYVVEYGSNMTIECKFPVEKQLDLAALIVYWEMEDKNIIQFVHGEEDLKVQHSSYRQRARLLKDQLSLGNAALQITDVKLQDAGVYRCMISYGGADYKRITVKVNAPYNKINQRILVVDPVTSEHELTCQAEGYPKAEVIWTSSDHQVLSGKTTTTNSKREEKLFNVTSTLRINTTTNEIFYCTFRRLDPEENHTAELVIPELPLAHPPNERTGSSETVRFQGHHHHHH
row,Compound,IC50
1,CCCC[C@H]1C(=O)N(C)[C@@H](CCCC)C(=O)N[C@@H](CC(C)C)C(=O)NCCC[C@H](N)C(=O)N[C@@H](Cc2ccc(Cl)cc2)C(=O)N2CCCC[C@H]2C(=O)N[C@@H](CC(N)=O)C(=O)N2CCC[C@H]2C(=O)N[C@@H](CN)C(=O)N[C@@H](CC(C)C)C(=O)N2C[C@H](O)C[C@H]2C(=O)N[C@@H](Cc2c[nH]c3ccccc23)C(=O)N[C@@H](CCN)C(=O)N[C@@H](Cc2cn(CC(=O)O)c3ccccc23)C(=O)N1C [Example 10545] (H-[Orn][Phe(4-Cl)][Pip]NP[Dap]L[Hyp]W[Dab][Trp(1-CH2COOH)][NMeNle][NMeNle]L; lactam 1-C),8 nM
2,CCCC[C@H]1C(=O)N(C)[C@@H](CCCC)C(=O)N[C@@H](C)C(=O)N[C@H](C(=O)NCC(N)=O)CCCNCC(=O)N[C@@H](Cc2ccc(O)cc2)C(=O)N(C)[C@@H](C)C(=O)N[C@@H](CC(=O)O)C(=O)N2CCC[C@H]2C(=O)N[C@@H](Cc2cnc[nH]2)C(=O)N[C@@H](CCC(N)=O)C(=O)N2C[C@H](O)C[C@H]2C(=O)N[C@@H](Cc2c[nH]c3ccccc23)C(=O)N[C@@H](CO)C(=O)N[C@@H](Cc2c[nH]c3ccccc23)C(=O)N1C [Example 10013],70 nM

# Same assay, conditions: PD-1-Ig (20 nM) / PD-L1-His (10 nM); range classes
row,Compound,IC50
1,CCCC[C@H]1C(=O)N(C)[C@@H](CCCC)C(=O)N[C@@H](CC(C)C)C(=O)NCCCCC(=O)N[C@@H](Cc2ccc(O)cc2)C(=O)N2CCCC[C@H]2C(=O)N[C@@H](CC(N)=O)C(=O)N2CCC[C@H]2C(=O)N[C@@H](CN)C(=O)N[C@@H](CC(C)C)C(=O)N2C[C@H](O)C[C@H]2C(=O)N[C@@H](Cc2c[nH]c3ccccc23)C(=O)N[C@@H](CCN)C(=O)N[C@@H](Cc2cn(CC(=O)O)c3ccccc23)C(=O)N1C [Example 10512] (cyclo([Ava]Y[Pip]NP[Dap]L[Hyp]W[Dab][Trp(1-CH2COOH)][NMeNle][NMeNle]L)),100 to 10000 nM
2,CCCC[C@H]1C(=O)N(C)[C@@H](CCCC)C(=O)N[C@@H](CC(C)C)C(=O)NCCCCC(=O)N[C@@H](Cc2ccc(C)cc2)C(=O)N2CCCC[C@H]2C(=O)N[C@@H](CC(N)=O)C(=O)N2CCC[C@H]2C(=O)N[C@@H](CN)C(=O)N[C@@H](CCC(=O)O)C(=O)N2C[C@H](O)C[C@H]2C(=O)N[C@@H](Cc2c[nH]c3ccccc23)C(=O)N[C@@H](CCN)C(=O)N[C@@H](Cc2cn(CC(=O)O)c3ccccc23)C(=O)N1C [Example 10541] (cyclo([Ava][Phe(4-Me)][Pip]NP[Dap]E[Hyp]W[Dab][Trp(1-CH2COOH)][NMeNle][NMeNle]L)),1 to 9.9 nM
3,CCCC[C@H]1C(=O)N(C)[C@@H](CCCC)C(=O)N[C@@H](CC(C)C)C(=O)N[C@H](C(N)=O)CCCC(=O)N[C@@H](Cc2ccc(Cl)cc2)C(=O)N2CCCC[C@H]2C(=O)N[C@@H](CC(=O)O)C(=O)N2CCC[C@H]2C(=O)N[C@@H](CN)C(=O)N[C@@H](CC(C)C)C(=O)N2C[C@H](O)C[C@H]2C(=O)N[C@@H](Cc2c[nH]c3ccccc23)C(=O)N[C@@H](CCN)C(=O)N[C@@H](Cc2cn(CC(=O)O)c3ccccc23)C(=O)N1C [Example 10556] ([Phe(4-Cl)][Pip]DP[Dap]L[Hyp]W[Dab][Trp(1-CH2COOH)][NMeNle][NMeNle]L[Aad]-NH2; lactam N-14),1 to 9.9 nM
4,CCCC[C@H]1C(=O)N(C)[C@@H](CCCC)C(=O)N[C@@H](CC(C)C)C(=O)NCCC[C@H](N)C(=O)N[C@@H](Cc2ccc(OC)cc2)C(=O)N2CCCC[C@H]2C(=O)N[C@@H](CC(N)=O)C(=O)N2CCC[C@H]2C(=O)N[C@@H](CN)C(=O)N[C@@H](CC(C)C)C(=O)N2C[C@H](O)C[C@H]2C(=O)N[C@@H](Cc2c[nH]c3ccccc23)C(=O)N[C@@H](CCN)C(=O)N[C@@H](Cc2cn(CC(=O)O)c3ccccc23)C(=O)N1C [Example 10518] (H-[Orn]Y(Me)[Pip]NP[Dap]L[Hyp]W[Dab][Trp(1-CH2COOH)][NMeNle][NMeNle]L; lactam 1-C),10 to 99 nM
5,CCCC[C@H]1C(=O)N(C)[C@@H](CCCC)C(=O)N[C@@H](CC(C)C)C(=O)N[C@H](C(N)=O)CNCC(=O)N[C@@H](Cc2ccc(O)cc2)C(=O)N2CCCC[C@H]2C(=O)N[C@@H](CC(N)=O)C(=O)N2CCC[C@H]2C(=O)N[C@@H](CCC(N)=O)C(=O)N[C@@H](CC(=O)O)C(=O)N2C[C@H](O)C[C@H]2C(=O)N[C@@H](Cc2c[nH]c3ccccc23)C(=O)N[C@@H](CC(N)=O)C(=O)N[C@@H](Cc2cn(CC(=O)O)c3ccccc23)C(=O)N1C [Example 9027],1 to 9.9 nM
6,CCCC[C@H]1C(=O)N(C)[C@@H](CCCC)C(=O)N[C@@H](CC(C)C)C(=O)N[C@H](C(N)=O)CNCC(=O)N[C@@H](Cc2ccc(O)cc2)C(=O)N2CCCC[C@H]2C(=O)N[C@@H](CC(N)=O)C(=O)N2CCC[C@H]2C(=O)N[C@@H](Cc2c[nH]cn2)C(=O)N[C@@H](CCC(=O)O)C(=O)N2C[C@H](O)C[C@H]2C(=O)N[C@@H](Cc2c[nH]c3ccccc23)C(=O)N[C@@H](C)C(=O)N[C@@H](Cc2cn(CC(=O)O)c3ccccc23)C(=O)N1C [Example 9050],1 to 9.9 nM
7,CCCC[C@H]1C(=O)N(C)[C@@H](CCCC)C(=O)N[C@@H](CC(C)C)C(=O)N[C@H](C(N)=O)CNCC(=O)N[C@@H](Cc2ccc(O)cc2)C(=O)N2CCCC[C@H]2C(=O)N[C@@H](CC(N)=O)C(=O)N2CCC[C@H]2C(=O)N[C@@H](CCC(N)=O)C(=O)N[C@@H](CC(C)C)C(=O)N2C[C@H](O)C[C@H]2C(=O)N[C@@H](Cc2c[nH]c3ccccc23)C(=O)N[C@@H](CC(N)=O)C(=O)N[C@@H](Cc2cn(CC(=O)O)c3ccccc23)C(=O)N1C [Example 9026],1 to 9.9 nM
8,CCCC[C@H]1C(=O)N(C)[C@@H](CCCC)C(=O)N[C@@H](CCC(=O)O)C(=O)N[C@H](C(N)=O)CCCC(=O)N[C@@H](Cc2ccc(O)cc2)C(=O)N2CCCC[C@H]2C(=O)N[C@@H](CC(N)=O)C(=O)N2CCC[C@H]2C(=O)N[C@@H](CN)C(=O)N[C@@H](CC(C)C)C(=O)N2C[C@H](O)C[C@H]2C(=O)N[C@@H](Cc2c[nH]c3ccccc23)C(=O)N[C@@H](CCN)C(=O)N[C@@H](Cc2cn(CC(=O)O)c3ccccc23)C(=O)N1C [Example 10561] (Y[Pip]NP[Dap]L[Hyp]W[Dab][Trp(1-CH2COOH)][NMeNle][NMeNle]E[Aad]-NH2; lactam N-14),1 to 9.9 nM
9,CCCC[C@H]1C(=O)N(C)[C@@H](CCCC)C(=O)N[C@@H](CCC(=O)O)C(=O)N[C@H](C(N)=O)CNCC(=O)N[C@@H](Cc2ccc(F)cc2)C(=O)N2CCCC[C@H]2C(=O)N[C@@H](CC(N)=O)C(=O)N2CCC[C@H]2C(=O)N[C@@H](Cc2c[nH]cn2)C(=O)N[C@@H](CCC(=O)O)C(=O)N2C[C@H](O)C[C@H]2C(=O)N[C@@H](Cc2c[nH]c3ccccc23)C(=O)N[C@@H](C)C(=O)N[C@@H](Cc2cn(CC(=O)O)c3ccccc23)C(=O)N1C [Example 9058],1 to 9.9 nM
10,CCCC[C@H]1C(=O)N(C)[C@@H](CCCC)C(=O)N[C@@H](CC(C)C)C(=O)NCCOCC(=O)N[C@@H](Cc2ccc(O)cc2)C(=O)N(C)[C@@H](C)C(=O)N[C@@H](CC(N)=O)C(=O)N2CCC[C@H]2C(=O)N[C@@H](CN)C(=O)N[C@@H](CC(C)C)C(=O)N2C[C@H](O)C[C@H]2C(=O)N[C@@H](Cc2c[nH]c3ccccc23)C(=O)N[C@@H](CO)C(=O)N[C@@H](Cc2cn(CC(=O)O)c3ccccc23)C(=O)N1C [Example 10503] (cyclo([AEA]Y[NMeA]NP[Dap]L[Hyp]WS[Trp(1-CH2COOH)][NMeNle][NMeNle]L)),10 to 99 nM
11,CCCC[C@H]1C(=O)N(C)[C@@H](CCCC)C(=O)N[C@@H](CC(C)C)C(=O)N[C@H](C(N)=O)CNCC(=O)N[C@@H](Cc2ccc(F)cc2)C(=O)N2CCCC[C@H]2C(=O)N[C@@H](CC(=O)O)C(=O)N2CCC[C@H]2C(=O)N[C@@H](CCC(N)=O)C(=O)N[C@@H](CC(=O)O)C(=O)N2C[C@H](O)C[C@H]2C(=O)N[C@@H](Cc2c[nH]c3ccccc23)C(=O)N[C@@H](CC(N)=O)C(=O)N[C@@H](Cc2cn(CC(=O)O)c3ccccc23)C(=O)N1C [Example 9039],1 to 9.9 nM
12,CCCC[C@H]1C(=O)N(C)[C@@H](CCCC)C(=O)N[C@@H](C)C(=O)N[C@H](C(=O)NCC(N)=O)CCNCC(=O)N[C@@H](Cc2ccc(O)cc2)C(=O)N(C)[C@@H](C)C(=O)N[C@@H](CC(=O)O)C(=O)N2CCC[C@H]2C(=O)N[C@@H](Cc2cnc[nH]2)C(=O)N[C@@H](CCC(N)=O)C(=O)N2C[C@H](O)C[C@H]2C(=O)N[C@@H](Cc2c[nH]c3ccccc23)C(=O)N[C@@H](CO)C(=O)N[C@@H](Cc2c[nH]c3ccccc23)C(=O)N1C [Example 10012],10 to 99 nM
13,CCCC[C@H]1C(=O)N(C)[C@@H](CCCC)C(=O)N[C@@H](C)C(=O)N[C@H](C(=O)NCC(N)=O)CCNCC(=O)N[C@@H](Cc2ccc(O)cc2)C(=O)N(C)[C@@H](C)C(=O)N[C@@H](CC(=O)O)C(=O)N2CCC[C@H]2C(=O)N[C@@H](Cc2cnc[nH]2)C(=O)N[C@@H](CCC(N)=O)C(=O)N2C[C@H](O)C[C@H]2C(=O)N[C@@H](Cc2c[nH]c3ccccc23)C(=O)N[C@@H](CO)C(=O)N[C@@H](Cc2cn(CC(=O)O)c3ccccc23)C(=O)N1C [Example 10015],1 to 9.9 nM
14,CCCC[C@H]1C(=O)N(C)[C@@H](CCCC)C(=O)N[C@@H](CC(C)C)C(=O)N[C@H](C(N)=O)CNCC(=O)N[C@@H](Cc2ccc(O)cc2)C(=O)N2CCCC[C@H]2C(=O)N[C@@H](CC(N)=O)C(=O)N2CCC[C@H]2C(=O)N[C@@H](CCC(N)=O)C(=O)N[C@@H](CCC(N)=O)C(=O)N2C[C@H](O)C[C@H]2C(=O)N[C@@H](Cc2c[nH]c3ccccc23)C(=O)N[C@@H](CC(N)=O)C(=O)N[C@@H](Cc2cn(CC(=O)O)c3ccccc23)C(=O)N1C [Example 9029],1 to 9.9 nM
15,CCCC[C@H]1C(=O)N(C)[C@@H](CCCC)C(=O)N[C@@H](CC(C)C)C(=O)N[C@H](C(=O)NCC(N)=O)CCCC(=O)N[C@@H](Cc2ccc(O)cc2)C(=O)N(C)[C@@H](C)C(=O)N[C@@H](CC(=O)O)C(=O)N2CCC[C@H]2C(=O)N[C@@H](Cc2c[nH]cn2)C(=O)N[C@@H](CCCCN)C(=O)N2C[C@H](O)C[C@H]2C(=O)N[C@@H](Cc2c[nH]c3ccccc23)C(=O)N[C@@H](CCCCN)C(=O)N[C@@H](Cc2cn(CC(=O)O)c3ccccc23)C(=O)N1C [Example 10516] (Y[NMeA]DPHK[Hyp]WK[Trp(1-CH2COOH)][NMeNle][NMeNle]L[Aad]G-NH2; lactam N-14),10 to 99 nM
